Test [1] concerns the target T1, C-X-C chemokine receptor type 1 (Homo sapiens, UniProt P25024). Note: in other assays of this panel Not Active means under 50% inhibition at 10 µM.
T1 sequence (P25024 whole entry): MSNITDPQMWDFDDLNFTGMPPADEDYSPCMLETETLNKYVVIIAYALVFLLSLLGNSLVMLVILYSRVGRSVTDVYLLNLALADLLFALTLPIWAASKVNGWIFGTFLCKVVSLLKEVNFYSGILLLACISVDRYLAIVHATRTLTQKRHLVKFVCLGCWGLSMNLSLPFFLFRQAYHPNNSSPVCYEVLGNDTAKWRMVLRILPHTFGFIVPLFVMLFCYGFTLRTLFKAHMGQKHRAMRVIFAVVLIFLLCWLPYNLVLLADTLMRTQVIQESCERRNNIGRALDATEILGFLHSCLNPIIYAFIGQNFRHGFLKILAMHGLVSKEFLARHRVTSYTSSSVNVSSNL

Test [2] can be described thus: DRUGMATRIX: GABAA, Flunitrazepam, Central radioligand binding (ligand: [3H] Flunitrazepam). Format: cell membranes, Rattus norvegicus, Wistar, Brain, Membrane. The conditions noted are these: Not Active = under 50% inhibition at 10 µM.
Test [3] has as its target T2, Muscarinic acetylcholine receptor M5 (Homo sapiens, UniProt P08912). Note: in other assays of this panel Not Active means under 50% inhibition at 10 µM.
T2 sequence (P08912 whole entry): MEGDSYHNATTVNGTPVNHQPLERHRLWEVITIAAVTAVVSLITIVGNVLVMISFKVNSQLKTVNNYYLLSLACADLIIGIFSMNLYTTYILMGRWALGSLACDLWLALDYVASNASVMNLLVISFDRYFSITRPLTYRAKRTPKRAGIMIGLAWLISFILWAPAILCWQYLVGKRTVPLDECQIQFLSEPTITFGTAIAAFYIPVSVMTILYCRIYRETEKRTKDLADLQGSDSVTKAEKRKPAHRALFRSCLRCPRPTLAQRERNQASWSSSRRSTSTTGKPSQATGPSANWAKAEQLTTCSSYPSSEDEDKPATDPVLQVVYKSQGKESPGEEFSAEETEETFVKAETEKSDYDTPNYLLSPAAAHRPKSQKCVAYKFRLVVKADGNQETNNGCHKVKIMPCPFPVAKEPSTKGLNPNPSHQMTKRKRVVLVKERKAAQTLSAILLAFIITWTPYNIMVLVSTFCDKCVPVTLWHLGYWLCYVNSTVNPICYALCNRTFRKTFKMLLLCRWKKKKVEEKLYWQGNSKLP
It counts as cell membranes, CHO-K1, Membrane. The conditions noted are these: for Ki: read-out: Ki.

Test [4] deals with T3, Neuropeptide Y receptor type 2 (Homo sapiens, UniProt P49146).
T3 sequence (P49146 whole entry): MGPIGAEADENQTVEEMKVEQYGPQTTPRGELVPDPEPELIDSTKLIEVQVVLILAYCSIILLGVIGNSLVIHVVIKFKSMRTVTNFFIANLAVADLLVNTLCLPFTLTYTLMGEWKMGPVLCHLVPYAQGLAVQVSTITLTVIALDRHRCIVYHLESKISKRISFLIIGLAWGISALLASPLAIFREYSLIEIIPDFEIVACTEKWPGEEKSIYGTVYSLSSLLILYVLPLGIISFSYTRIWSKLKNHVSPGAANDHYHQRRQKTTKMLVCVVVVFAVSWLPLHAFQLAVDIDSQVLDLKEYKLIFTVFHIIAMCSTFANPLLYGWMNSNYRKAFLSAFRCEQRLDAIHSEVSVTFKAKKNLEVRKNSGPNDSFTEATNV
Format: cell membranes, KAN-TS, Membrane.

Test [5] has as its target T4, Nitric oxide synthase, inducible (Mus musculus, UniProt P29477).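 Note: inhibition of iNOS enzyme activity measured with L-arginine as substrate; in other assays of this panel Not Active means under 50% inhibition at 10 µM.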
T4 sequence (P29477 whole entry): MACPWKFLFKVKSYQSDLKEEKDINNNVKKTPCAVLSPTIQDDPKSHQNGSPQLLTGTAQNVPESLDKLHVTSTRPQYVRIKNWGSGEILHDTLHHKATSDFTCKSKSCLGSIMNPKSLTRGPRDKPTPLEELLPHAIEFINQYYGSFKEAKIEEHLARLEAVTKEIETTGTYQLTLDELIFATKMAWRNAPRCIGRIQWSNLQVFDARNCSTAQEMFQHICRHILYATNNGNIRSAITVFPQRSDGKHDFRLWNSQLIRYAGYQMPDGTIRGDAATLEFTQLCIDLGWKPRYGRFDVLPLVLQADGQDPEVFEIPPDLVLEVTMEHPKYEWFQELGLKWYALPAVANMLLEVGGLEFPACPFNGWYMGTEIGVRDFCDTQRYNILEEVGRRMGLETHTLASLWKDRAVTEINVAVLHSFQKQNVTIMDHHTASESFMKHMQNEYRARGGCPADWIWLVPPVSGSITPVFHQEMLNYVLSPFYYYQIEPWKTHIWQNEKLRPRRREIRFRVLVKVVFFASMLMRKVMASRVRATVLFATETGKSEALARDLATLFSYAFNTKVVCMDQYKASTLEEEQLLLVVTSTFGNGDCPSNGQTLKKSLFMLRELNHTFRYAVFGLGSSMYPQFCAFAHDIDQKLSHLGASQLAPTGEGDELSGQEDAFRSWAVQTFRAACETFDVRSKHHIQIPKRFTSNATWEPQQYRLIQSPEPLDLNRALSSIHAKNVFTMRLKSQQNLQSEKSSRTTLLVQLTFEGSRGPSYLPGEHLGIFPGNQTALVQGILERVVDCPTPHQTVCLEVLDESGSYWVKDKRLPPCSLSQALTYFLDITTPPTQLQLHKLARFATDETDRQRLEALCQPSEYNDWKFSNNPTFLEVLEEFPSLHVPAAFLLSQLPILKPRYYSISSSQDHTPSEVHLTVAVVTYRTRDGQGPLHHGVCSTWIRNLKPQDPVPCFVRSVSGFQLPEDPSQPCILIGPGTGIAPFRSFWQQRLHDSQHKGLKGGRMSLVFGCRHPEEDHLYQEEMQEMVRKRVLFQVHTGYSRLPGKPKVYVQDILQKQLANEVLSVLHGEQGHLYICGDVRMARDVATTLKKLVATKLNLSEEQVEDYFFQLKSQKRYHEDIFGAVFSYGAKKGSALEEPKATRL
Further details: species or system Escherichia coli.

Test [6] in a line: DRUGMATRIX: Phorbol Ester radioligand binding (ligand: [3H] PDBu). It counts as cell membranes, Mus musculus, ICR, Brain, Membrane. The conditions noted are these: Not Active = under 50% inhibition at 10 µM.

In general, IC50 refers to the concentration needed to halve the response being measured. Usually Ki stands for a dissociation constant, usually derived from enzyme kinetics or from competition with a known ligand. With `Cc1c(C)c2c(c(C)c1O)CCC(C)(CN1CCN(c3cc(N4CCCC4)nc(N4CCCC4)n3)CC1)O2` (stereo unspecified), the IC50 result in test [1], in test [2], in test [3] (cho-k1), in test [4] (kan-ts), in test [5] and in test [6] was “Not Active” each time. Further, the inhibition constant Ki result in test [2] and in test [6] was “Not Active” in each case.

As to `COc1ccc(CCN(C)CCCC(C#N)(c2ccc(OC)c(OC)c2)C(C)C)cc1OC` (stereo unspecified), the IC50 result in test [1], in test [2], in test [3] (cho-k1), in test [4] (kan-ts), in test [5] and in test [6] was “Not Active” throughout. The Ki entry in test [2] and in test [6] was “Not Active” throughout.

As to `CC(C)Cc1ccc([C@@H](C)C(=O)O)cc1` [(R)-IBUPROPHEN], the IC50 result in test [1], in test [2], in test [3] (cho-k1), in test [4] (kan-ts), in test [5] and in test [6] was “Not Active” each time. Moreover, the Ki result in test [2] and in test [6] was “Not Active” in each case.

As for `CN(C)CCOC(c1ccccc1)c1ccccc1` [DIPHENHYDRAMINE], the 50% inhibitory concentration (IC50) result in test [1], in test [4] (kan-ts) and in test [5] was “Not Active” throughout.

Regarding `Clc1ccc(COC(Cn2ccnc2)c2ccc(Cl)cc2Cl)cc1` (stereo unspecified) [ECONAZOLE], the concentration for half-maximal inhibition (IC50) entry in test [1] was “Not Active”; in test [3] (cho-k1), “Not Active”; in test [4] (read-out: IC50) it was 20.1 µM; in test [5], “Not Active”. Also, the Ki in test [4] (read-out: Ki) was 11 µM.

Consider `CCN(CC)CCOc1ccc(/C(=C(/Cl)c2ccccc2)c2ccccc2)cc1` [ENCLOMIPHENE], for which the IC50 result was “Not Active” in test [1], 1.77 µM in test [3] (read-out: IC50), “Not Active” in test [4] (kan-ts) and “Not Active” in test [5]. Moreover, the Ki in test [3] turned out to be 1.27 µM.

As to `Fc1ccc(C(c2ccc(F)cc2)N2CCN(C/C=C/c3ccccc3)CC2)cc1` [FLUNARIZINE], the 50% inhibitory concentration (IC50) result in test [1], in test [4] (kan-ts) and in test [5] was “Not Active” throughout.

Consider `CNCCC(Oc1ccc(C(F)(F)F)cc1)c1ccccc1` (stereo unspecified) [FLUOXETINE], for which the IC50 result in test [1], in test [4] (kan-ts) and in test [5] was “Not Active” throughout.

`Cc1ccc(NC(=O)c2ccc(CN3CCN(C)CC3)cc2)cc1Nc1nccc(-c2cccnc2)n1` [IMATINIB]: the half-maximal inhibitory concentration (IC50) entry in test [1], in test [3] (cho-k1), in test [4] (kan-ts) and in test [5] was “Not Active” in each case.

For the molecule `CC(C)Oc1ccc2c(=O)c(-c3ccccc3)coc2c1` [IPRIFLAVONE], the 50% inhibitory concentration (IC50) entry in test [1], in test [2], in test [3] (cho-k1), in test [4] (kan-ts), in test [5] and in test [6] was “Not Active” each time. The Ki entry in test [2] and in test [6] was “Not Active” throughout.

Turning to `CC(C)NCC(O)c1ccc(O)c(O)c1` (stereo unspecified) [ISOPROTERENOL], the half-inhibitory concentration (IC50) entry in test [1], in test [2], in test [3] (cho-k1), in test [4] (kan-ts), in test [5] and in test [6] was “Not Active” each time. Besides, the Ki entry in test [2] and in test [6] was “Not Active” each time.

On to `CNC1(c2ccccc2Cl)CCCCC1=O` (stereo unspecified) [KETAMINE], for which the IC50 entry in test [1], in test [2], in test [3] (cho-k1), in test [4] (kan-ts), in test [5] and in test [6] was “Not Active” throughout. Further, the inhibitory constant (Ki) result in test [2] and in test [6] was “Not Active” throughout.

Regarding `N#Cc1ccc(C(c2ccc(C#N)cc2)n2cncn2)cc1` [LETROZOLE], the concentration for half-maximal inhibition (IC50) result in test [1], in test [2], in test [3] (cho-k1), in test [4] (kan-ts), in test [5] and in test [6] was “Not Active” each time. Further, the inhibitory constant (Ki) entry in test [2] and in test [6] was “Not Active” throughout.

In the case of `CCN1CCC[C@H]1CNC(=O)c1cc(S(N)(=O)=O)ccc1OC` [LEVOSULPIRIDE], the half-inhibitory concentration (IC50) entry in test [1], in test [2], in test [3] (cho-k1), in test [4] (kan-ts), in test [5] and in test [6] was “Not Active” throughout. Moreover, the Ki entry in test [2] and in test [6] was “Not Active” each time.

As to `CCN(CC)CC(=O)Nc1c(C)cccc1C` [LIDOCAINE], the IC50 result in test [1], in test [2], in test [3] (cho-k1), in test [4] (kan-ts), in test [5] and in test [6] was “Not Active” in each case. Besides, the inhibitory constant (Ki) entry in test [2] and in test [6] was “Not Active” in each case.

`O=C1Nc2ccc(Cl)cc2C(c2ccccc2Cl)=NC1O` (stereo unspecified) [LORAZEPAM]: the IC50 result in test [1] was “Not Active”; in test [2] (read-out: IC50), 0.00635 µM; in test [3] (cho-k1), “Not Active”; in test [4] (kan-ts), “Not Active”; in test [5] it was “Not Active”; in test [6] it was “Not Active”. Besides, the Ki in test [2] (read-out: Ki) is 0.00518 µM; in test [6], “Not Active”.

As to `CO[C@@H]1[C@@H](OC)[C@H](C)[C@@](O)(CC(=O)O)O[C@H]1[C@H](C)[C@H]1O[C@@]2(CC[C@@](C)([C@H]3CC[C@@](C)([C@@H]4O[C@@H]([C@H]5O[C@](C)(O)[C@H](C)C[C@@H]5C)C[C@@H]4O[C@@H]4C[C@H](OC)[C@@H](OC)[C@H](C)O4)O3)O2)C[C@H](O)[C@H]1C` [MADURAMICIN ACID], the 50% inhibitory concentration (IC50) entry in test [1], in test [2], in test [3] (cho-k1), in test [4] (kan-ts), in test [5] and in test [6] was “Not Active” each time. Moreover, the Ki result in test [2] and in test [6] was “Not Active” each time.

As for `CN[C@H]1CC[C@@H](c2ccc(Cl)c(Cl)c2)c2ccccc21` [SERTRALINE], the IC50 result is “Not Active” in test [1], 0.507 µM in test [3] (read-out: IC50), “Not Active” in test [4] (kan-ts) and “Not Active” in test [5]. Also, in test [3], the Ki came to 0.365 µM.

These data come from ChEMBL document CHEMBL1909046, “DrugMatrix in vitro pharmacology data”.
